In patent US4254106A, “Biologically active amides” (priority 1976, dated 1981):
Where a name gives a salt, the structure may show the parent alone. Non-standard residues stand in square brackets, D forms with d. Residues, ends and D or L forms follow the SMILES beside them.

Test system: isolated mouse vas deferens
Assay type: cell-based
Settings: for Relative Potency (Morphine): RP=antilog[logD50(morphine)-logD50(test compound)]; for IC50: dose giving the response halfway between maximum response and minimum contraction, pulses at 0.1 Hz, mean of generally at least two cumulative dose response curves, read-out: Mean D50
Protocol: The compounds were examined for their ability to inhibit neurally evoked contractions of the isolated mouse vas deferens preparation (method of Hughes et al, Brain Research, 88 (1975) 296, using pulses at 0.1 Hz).
The heights of the five contractions that immediately preceded the addition of the first "dose" of test compound were measured and their mean calculated. The resultant mean contraction associated with a particular bath concentration of test compound was calculated from the heights of the 6th, 7th, 8th, 9th and 10th contractions after the addition of the appropriate "dose" of test compound, i.e. the five contractions that immediately preceded the subsequent "dose" or washout.
The mean control contraction height and the concentration related mean contraction heights were used to compute the constants in an equation based on the Langmuir Adsorption Isotherm which defined the dose response curve: [formula] where y=contraction (mm)
For each test compound the D50 was calculated, defined as the dose giving the resonse that is halfway between the maximum response and the minimum contraction of the tissue.
Generally at least two cumulative dose response curves were constructed and a mean D50 calculated.

`CSCC[C@H](NC(=O)[C@H](Cc1ccccc1)NC(=O)CNC(=O)[C@@H](C)NC(=O)[C@@H](N)Cc1ccc(O)cc1)C(=O)O` [5(a), H.Tyr.D-Ala.Gly.Phe.Met.OH HCl] was tested, and the “Relative Potency (Morphine)” value was 229 and the IC50 was 2.03 nM.
For `COC(=O)[C@H](CCSC)NC(=O)[C@H](Cc1ccccc1)NC(=O)CNC(=O)[C@@H](C)NC(=O)[C@@H](N)Cc1ccc(O)cc1` [5(b), H.Tyr.D-Ala.Gly.Phe.Met.OMe], the “Relative Potency (Morphine)” value was 94 and the IC50 was 4.95 nM.
For `CC(C)C[C@H](NC(=O)[C@H](Cc1ccccc1)NC(=O)CNC(=O)[C@@H](C)NC(=O)[C@@H](N)Cc1ccc(O)cc1)C(=O)O` [Example 4, H.Tyr.D-Ala.Gly.Phe.Leu.OH HCl], the “Relative Potency (Morphine)” value was 267 and the IC50 was 1.74 nM.
For `CSCC[C@H](NC(=O)[C@H](Cc1ccccc1)NC(=O)CNC(=O)[C@@H](C)NC(=O)[C@@H](N)Cc1ccc(O)cc1)C(=O)N[C@H](C(=O)O)[C@@H](C)O` [Example 14, H.Tyr.D-Ala.Gly.Phe.Met.Thr.OH HCl] (H-Y[dA]GFMT-OH), the “Relative Potency (Morphine)” value was 229 and the IC50 was 2.03 nM.
In the case of `CN1CC[C@]23c4c5ccc(O)c4O[C@H]2[C@@H](O)C=C[C@H]3[C@H]1C5` [Morphine, reference compound], the “Reversal of the inhibition of contractions by naloxone” value is reported as “Reversal of the inhibition of the contractions was effected”.
